{
  "source": "patent US20210379088A1",
  "about": "“CANCER REGRESSION BY INDUCING A REGENERATION-LIKE RESPONSE” (VIB VZW, priority 2018, published 2021)",
  "key": {"[1]": {"test_system": "liver", "conditions": "mice, feeding for 5 days with 0.2% cholic acid; cited from earlier work"}, "[2]": {"test_system": "N-Akt tumors (intrahepatic cholangiocarcinoma)", "assay": "N-Akt intrahepatic cholangiocarcinoma in Apo>hYAP1SA mice, doxycycline-induced hYAP1SA expression in peritumoral hepatocytes", "format": "in vivo, mouse", "procedure": "For intrahepatic delivery of the transposon system (Kang et al., 2011), eight to ten-week-old mice were secured and hydrodynamically injected with 1 μg pCMV/SB11, 4 μg pSBbi-puro-myrAKT-HA, 20 μg of pSBbi-puro-myc-NICD, or 10 μg of cMyc-IRES-NRas via lateral tail vein. For the expression of SB-Cre^ERT2 or inducible Bcl2, 15 μg of pSBbi-puro-Cre^ERT2 or 10 μg of pSBTetON—RH-Flag-Bcl2, respectively, were added to the plasmid mixture. All plasmids were diluted in sterile filtered 0.9% NaCl, and the total volume was adjusted to 10% (in ml) of the total body weight (in grams).\n(§1) For conditional deletion of Yap and Taz, tamoxifen was administered for 5 consecutive days, via intraperitoneal injection at a concentration of 1.6 mg/kg in corn oil. In order to activate the expression of TetON-Bcl2 or human YAP expression in Apo>hYAP^1SA mice, 0.2 mg/ml of doxycycline was diluted in filtered sterile drinking water supplemented with 2.5% sucrose and administered ad libido. Doxycycline containing water bottles were protected from light and replaced every other day.\n(§2) All quantifications were performed using ImageJ software. Quantification of relative tumor area was done by measuring the tumor area (marked by HA-Akt positive cells in N-Akt model, phospho-ERK expression in Myc-Ras model or S100 expression in melanoma model) and the total area (marked by DAPI). […] We inferred absolute tumor load by multiplying the tumor area by the liver weight of each mouse (absolute tumor load (cm^3)=tumor area (cm)×liver weight (grams).\nWe next tested whether overexpression of a constitutively active form of YAP (YAP^1SA; this is the YAP variant carrying the mutation Ser127Ala; see description hereinabove), due to mutation of the main Lats1/2 phosphorylation site, is sufficient to recapitulate the tumor regression caused by Lats1/2 deletion. We used transgenic mice that conditionally overexpressed human YAP^1SA in hepatocytes under the control of a doxycycline (Dox) inducible promoter (TetON system) and where the reverse tetracycline transactivator (rtTA) is expressed under the hepatocyte-specific ApoE promoter (hereafter Apo>hYAP^1SA)(Dong et al., 2007). Upon doxycycline feeding, Apo>hYAP^1SA mice induced hepatocyte proliferation and developed liver overgrowth as previously reported (FIG. 10A,B) (Dong et al. 2007). We then induced N-Akt tumors in Apo>hYAP^1SA mice and induced hYAP^1SA expression after 4 weeks of tumor development by adding doxycycline to their drinking water (FIG. 5A). As expected, YAP protein levels increased in doxycycline treated Apo>hYAP^1SA mice but not in non-treated Apo>hYAP^1SA mice or in doxycycline treated C57BL/6 mice (FIG. 10C). […]"}, "[3]": {"test_system": "NRAS-mutant metastatic melanoma cells in the liver", "assay": "NRas+/INK4a-/- melanoma liver metastases in Apo>hYAP1SA mice, doxycycline-induced hYAP1SA expression", "format": "in vivo, mouse", "conditions": "Apo>YAP1SA mice injected with 10.000 melanoma cells; 2 weeks after YAP activation by doxycycline in drinking water", "procedure": "For intrahepatic seeding of tumor cells, mice were hydrodynamically injected with 10.000 mouse melanoma cells (NRas^+/INK4a^−/−) diluted in sterile minimal essential medium (MEM), adjusted to 10% (in ml) of total body weight (in grams). All injected mice were monitored daily and sacrificed in groups at appropriate time points. All experimental and control groups contained 5 to 10 mice.\nas §1\nAll quantifications were performed using ImageJ software. Quantification of relative tumor area was done by measuring the tumor area (marked by HA-Akt positive cells in N-Akt model, phospho-ERK expression in Myc-Ras model or S100 expression in melanoma model) and the total area (marked by DAPI). […] We inferred absolute tumor load by multiplying the tumor area by the liver weight of each mouse (absolute tumor load (cm^3)=tumor area (cm)×liver weight (grams). […]"}, "[4]": {"test_system": "N-Akt tumors", "assay": "Control experiments: effect of tamoxifen or AAV-Cre on N-Akt tumor growth in control mice", "format": "in vivo, mouse", "conditions": "control mice with N-Akt tumors without floxed-gene deletion (C57BL/6, or Yap fl/fl;Taz fl/fl without SB-CreERT2)", "procedure": "as §1\nAdeno-associated virus serotype 8 (AAV8) expressing CRE recombinase under the hepatocyte specific promoter TBG was purchased from UPenn (AAV8.TBG.PI.Cre.rBG, catalog AV-8-PV1091). Mice received 5×10^11 GC of AAV8.TBG.PI.Cre.rBG diluted in 200 ul of 1× phosphate-buffered saline (PBS) by tail vein injection.\nas §2"}},
  "data": [
    {"smiles": "C[C@H](CCC(=O)O)[C@H]1CC[C@H]2[C@@H]3[C@H](O)C[C@@H]4C[C@H](O)CC[C@]4(C)[C@H]3C[C@H](O)[C@]12C", "note": "[cholic acid]", "values": [
      {"measurement": "liver size increase", "setting": "[1]", "value": 30, "unit": "%"}
    ]},
    {"smiles": "C[C@H]1c2cccc(O)c2C(=O)C2=C(O)[C@]3(O)C(=O)C(C(N)=O)=C(O)[C@@H](N(C)C)[C@@H]3[C@@H](O)[C@@H]21", "note": "[doxycycline]", "values": [
      {"measurement": "survival after tumor initiation", "setting": "[2]; Apo>hYAP1SA mice, two weeks of doxycycline administration", "value": "up to 14 weeks"},
      {"measurement": "average survival longer than the control mice", "setting": "[2]; treated Apo>hYAP1SA mice", "value": 4, "unit": "weeks"},
      {"measurement": "mice with only a few small tumor remnants", "setting": "[2]; treated Apo>hYAP1SA mice, after 2 weeks of doxycycline", "value": "5/10"},
      {"measurement": "treated mice still alive", "setting": "[2]; within 6 weeks of tumor initiation, when half of the control mice had died", "value": "more than 80%"},
      {"measurement": "reduction in tumor load", "setting": "[3]", "value": 98, "unit": "%"}
    ]},
    {"smiles": "CC/C(=C(\\c1ccccc1)c1ccc(OCCN(C)C)cc1)c1ccccc1", "note": "[tamoxifen]", "values": [
      {"measurement": "effect on tumor development, growth or total tumor volume", "setting": "[4]", "value": "not affected"}
    ]}
  ]
}
